This assay has as its target T1, HIV-1 protease (Human immunodeficiency virus type 1 group M subtype B, UniProt P04585).
T1 construct: The protease (or proteinase), consisting of only 99 amino acids, is among the smallest enzymes known
The assay can be described thus: In vitro HIV protease inhibitory assay (HIV Protease FITC Assay). The assay is classed as biochemical. The note with it: for inhibition at 0.123 µM / inhibition at 0.37 µM / inhibition at 1.1 µM / inhibition at 3.3 µM / inhibition at 10 µM / inhibition at 30 µM / inhibition at 1 µM / inhibition at 100 µM / inhibition at 0.41 µM / inhibition at 1.23 µM / inhibition at 3.7 µM / inhibition at 11 µM / inhibition at 33 µM: read-out: HIV-1 Protease % Inhib; for inhibition at 0.41 µM: HIV-1 Dose 0.410 uM; for inhibition at 1.23 µM: HIV-1 Dose 1.230 uM; for inhibition at 3.7 µM: HIV-1 Dose 3.700 uM; for inhibition at 11 µM: HIV-1 Dose 11.000 uM; for inhibition at 33 µM: HIV-1 Dose 33.000 uM. The method in brief:
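Percent inhibition was read as fluorescence after avidin-bead capture and filtration separated FITC cleavage product from biotinylated substrate. Enzyme and substrate reacted 1 h, RT, dark, at pH 5.5 (0.1 M sodium acetate, 1.0 M NaCl, 0.05% NP-40).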

A word on the Ki: it is the equilibrium dissociation constant of an inhibitor or competing ligand from its target. Broadly, the IC50 is the concentration that gives 50% inhibition. A high value points to lower potency.

Read-outs that look alike come from different tables or passages of the source.

As to `CCCC1(CCc2ccccc2)CC(O)=C(C(CC)c2ccccc2)C(=O)O1` (stereo not drawn) [Example 175, 5,6-Dihydro-4-hydroxy-6-(2-phenylethyl)-3-(1-phenylpropyl)-6-propyl-2H-pyran-2-one], affinity was put at a Ki of 0.035 µM, the inhibition at 0.123 µM is 19.7%, the inhibition at 0.37 µM was found to be 46.7% and the inhibition at 1.1 µM came to 78.8%. Besides, the inhibition at 3.3 µM amounted to 99.3%, the inhibition at 10 µM amounted to 107% and the inhibition at 30 µM was found to be 105%.

On to `CCC(Cc1ccc(F)cc1)c1cc(O)c(C(c2ccccc2)C2CC2)c(=O)o1` (stereo not drawn) [Example 154, 3-(α-cyclopropylbenzyl)-4-hydroxy-6-(α-ethyl-p-flurorphenethyl)-2H-pyran-2-one], for which, where the note is “HIV-1 Dose 0.123 uM”, the inhibition at 0.123 µM was 21.9%. In addition, the inhibition at 0.37 µM (HIV-1 Dose 0.370 uM) came out at 57.3%. Moreover, the inhibition at 1.1 µM (HIV-1 Dose 1.100 uM) was 84.1%. Under “HIV-1 Dose 3.300 uM”, the inhibition at 3.3 µM was determined as 86.7%. For the same compound, the inhibition at 10 µM (HIV-1 Dose 10.000 uM) worked out at 98.1%. In addition, the inhibition at 30 µM (HIV-1 Dose 30.000 uM) is 92.9%. Under “read-out: HIV-1 FITC Ki”, the Ki came to 0.039 µM.

Regarding `CCC(CCC(F)(F)F)c1cc(O)c(C(c2ccccc2)C2CC2)c(=O)o1` (stereo not drawn) [Example 136, 3-(Cyclopropylphenylmethyl)-6-(1-ethyl-4,4,4-trifluorobutyl)-4-hydroxy-2H-pyran-2-one], the inhibition at 0.123 µM (HIV-1 Dose 0.123 uM) is less than 10%. The inhibition at 0.37 µM (HIV-1 Dose 0.370 uM) worked out at 24.5%. Moreover, the inhibition at 1.1 µM (HIV-1 Dose 1.100 uM) was determined as 62.4%. Besides, under “HIV-1 Dose 3.300 uM”, the inhibition at 3.3 µM was determined as 91.3%. In addition, under “HIV-1 Dose 10.000 uM”, the inhibition at 10 µM worked out at 99.1%. In addition, the inhibition at 30 µM (HIV-1 Dose 30.000 uM) amounted to 99.7%. Further, the Ki (read-out: HIV-1 FITC Ki) was found to be 0.052 µM.

As for `CCC(CC1CC(=O)N(Cc2ccccc2)C1)c1cc(O)c(C(c2ccccc2)C2CC2)c(=O)o1` (stereo not drawn) [Example 142, 4-[2-[3-(Cyclopropylphenylmethyl)-4-hydroxy-2-oxo-2H-pyran-6-yl]butyl]-1-(phenylmethyl)-2-pyrrolidinone], the inhibition at 0.123 µM (HIV-1 Dose 0.123 uM) was less than 10%. The inhibition at 0.37 µM (HIV-1 Dose 0.370 uM) is less than 10%. Moreover, the inhibition at 1.1 µM (HIV-1 Dose 1.100 uM) worked out at 26.9%. The inhibition at 3.3 µM (HIV-1 Dose 3.300 uM) amounted to 64.3%. Further, the inhibition at 10 µM (HIV-1 Dose 10.000 uM) worked out at 88.7%. The inhibition at 30 µM (HIV-1 Dose 30.000 uM) came out at 104%.

`CCC(Cc1ccccc1)c1cc(O)c(C(c2cccc(NC(=O)Cc3ccccn3)c2)C2CC2)c(=O)o1` (stereo not drawn) [Example 231, 3-(α-Cyclopropyl-meta-(2-pyridylacetylamino)benzyl)-6-(α-ethylphenethyl)-4-hydroxy-2H-pyran-2-one]: the inhibition at 0.123 µM (HIV-1 Dose 0.123 uM) stood at 16.5%. The inhibition at 0.37 µM (HIV-1 Dose 0.370 uM) came out at 57.4%. For the same compound, the inhibition at 1.1 µM (HIV-1 Dose 1.100 uM) worked out at 77.7%. Also, the inhibition at 3.3 µM (HIV-1 Dose 3.300 uM) turned out to be 98.9%. For the same compound, the inhibition at 10 µM (HIV-1 Dose 10.000 uM) amounted to 113%. Where the note is “HIV-1 Dose 30.000 uM”, the inhibition at 30 µM turned out to be 109%. The Ki (read-out: HIV-1 FITC Ki) is 0.0524 µM.

`COCCOCCCc1cc(O)c(C(c2ccccc2)C2CC2)c(=O)o1` (stereo not drawn) [Example 102, 3-(Cyclopropyl-phenyl-methyl)-4-hydroxy-6-(3-(2-methoxy-ethoxy)-propyl)-pyran-2-one]: the inhibition at 1 µM (HIV-1 Dose 1.000 uM) is 33.8%. Moreover, the inhibition at 10 µM (HIV-1 Dose 10.000 uM) stood at 62.2%. Besides, the inhibition at 100 µM (HIV-1 Dose 100.000 uM) is 105%. For the same compound, the Ki (read-out: HIV-1 FITC Ki) was found to be 1.52 µM.

As to `CCCC1(CCc2ccccc2)CC(O)=C(C(CCc2ccccc2)c2ccccc2)C(=O)O1` (stereo not drawn) [Example 171, 3-(1,3-Diphenylpropyl)-5,6-dihydro-4-hydroxy-6-(2-phenylethyl)-6-propyl-, 2H-pyran-2-one], the inhibition at 0.123 µM was found to be 11.8%, the inhibition at 0.37 µM was found to be 39.5%, the inhibition at 1.1 µM was found to be 68.9% and the inhibition at 3.3 µM is 82.2%. In addition, the inhibition at 10 µM came to 96.8% and the inhibition at 30 µM stood at 94.6%. The Ki (read-out: HIV-1 FITC Ki) turned out to be 0.05 µM.

On to `Cc1nc(CCc2cc(O)c(C(c3ccccc3)C3CC3)c(=O)o2)cs1` (stereo not drawn) [Example 50, 3-(Cyclopropyl-phenyl-methyl)-4-hydroxy-6-(2-(2-methyl-thiazol-4-yl)-ethyl)-pyran-2-one], for which the inhibition at 0.41 µM was less than 10%, the inhibition at 1.23 µM worked out at 22.1%, the inhibition at 3.7 µM is 55.5% and the inhibition at 11 µM is 80.5%. Moreover, the inhibition at 33 µM was found to be 96%. Further, where the note is “HIV-1 Dose 100.000 uM”, the inhibition at 100 µM stood at 106%. Also, the Ki (read-out: HIV-1 FITC Ki) turned out to be 0.353 µM.

Compound `O=c1oc(CCc2ccccc2)cc(O)c1C(c1ccccc1)C1CC1` (stereo not drawn) [Example 24, 3-(α-cyclopropylbenzyl)-4-hydroxy-6-phenethyl-2H-Pyran-2-one] yielded an IC50 of 6.3 µM. Besides, under “HIV-1 Dose 1.000 uM”, the inhibition at 1 µM was less than 10%. The inhibition at 10 µM (HIV-1 Dose 10.000 uM) stood at 61.3%. Further, for the setting “HIV-1 Dose 100.000 uM”, the inhibition at 100 µM came to 105%.

Take `CCC(c1ccccc1)c1c(O)cc(CCc2ccc3ccccc3c2)oc1=O` (stereo not drawn) [Example 16, 3-(α-ethylbenzyl)-4-hydroxy-6-(2-naphth-2-ylethyl)-2H-Pyran-2-one]: for the setting “HIV-1 Dose 1.000 uM”, the inhibition at 1 µM was less than 10%. Further, the inhibition at 10 µM (HIV-1 Dose 10.000 uM) is less than 10%. In addition, where the note is “HIV-1 Dose 100.000 uM”, the inhibition at 100 µM is 49.9%.

For `CCC(c1ccccc1)c1c(O)cc(C(CC2CC2)CC2CC2)oc1=O` (stereo not drawn) [Example 87, 6-(2-Cyclopropyl-1-cyclopropylmethyl-ethyl)-4-hydroxy-3(1-phenyl-propyl)-pyran-2-one], the inhibition at 1 µM (HIV-1 Dose 1.000 uM) was determined as 17.8%. Besides, under “HIV-1 Dose 10.000 uM”, the inhibition at 10 µM was 83.8%. In addition, the inhibition at 100 µM (HIV-1 Dose 100.000 uM) was 90.2%.

On to `CCC(Cc1cccc(OC)c1)c1cc(O)c(C(c2ccccc2)C2CC2)c(=O)o1` (stereo not drawn) [Example 164, 3-(α-cyclopropylbenzyl)-4-hydroxy-6-(α-ethyl-m-methoxyphenethyl)-2H-pyran-2-one], for which the inhibition at 0.123 µM (HIV-1 Dose 0.123 uM) was less than 10%. The inhibition at 0.37 µM (HIV-1 Dose 0.370 uM) amounted to 16.5%. Moreover, the inhibition at 1.1 µM (HIV-1 Dose 1.100 uM) was 50%. For the same compound, under “HIV-1 Dose 3.300 uM”, the inhibition at 3.3 µM was found to be 68.8%. Also, under “HIV-1 Dose 10.000 uM”, the inhibition at 10 µM amounted to 84.8%. Moreover, the inhibition at 30 µM (HIV-1 Dose 30.000 uM) was 88.2%. For the same compound, the Ki (read-out: HIV-1 FITC Ki) was determined as 0.185 µM.

“3-(.alpha.-ethylbenzyl)-4-hydroxy-6-(3-butenyl)-2H-Pyran-2-one [Example 10]” displayed an IC50 of 2.9 µM. The “HIV-1 Protease % Inhib” value (HIV-1 Dose 1.000 uM) was 14.18%. The “HIV-1 Protease % Inhib” value (HIV-1 Dose 10.000 uM) worked out at 82.75%. For the setting “HIV-1 Dose 100.000 uM”, the “HIV-1 Protease % Inhib” value amounted to 104.37%.

As for “Dimethyl 3-[(4-hydroxy-2-oxo-6-phenyl-2H-1-pyran-3-yl)(3-nitrophenyl)methyl] -1,3-propandioate [Example 29]”, the “HIV-1 Protease % Inhib” value (HIV-1 Dose 1.000 uM) is less than 10%, the “HIV-1 Protease % Inhib” value (HIV-1 Dose 10.000 uM) is listed as less than 10% and the “HIV-1 Protease % Inhib” value (HIV-1 Dose 100.000 uM) was 32.16%.

On to `CCC(Cc1ccc(C(F)(F)F)cc1)c1cc(O)c(C(c2ccccc2)C2CC2)c(=O)o1` (stereo not drawn) [Example 160, 3-(α-cyclopropylbenzyl)-4-hydroxy-6-(α-ethyl-p-triflurormethylphenethyl)-2H-pyran-2-one], for which the inhibition at 0.123 µM (HIV-1 Dose 0.123 uM) is less than 10%. In addition, the inhibition at 0.37 µM (HIV-1 Dose 0.370 uM) came out at 12.2%. For the same compound, the inhibition at 1.1 µM (HIV-1 Dose 1.100 uM) was found to be 39.4%. Under “HIV-1 Dose 3.300 uM”, the inhibition at 3.3 µM came to 78.2%. In addition, the inhibition at 10 µM (HIV-1 Dose 10.000 uM) was 89.7%. In addition, the inhibition at 30 µM (HIV-1 Dose 30.000 uM) worked out at 92.1%.

As to `CCCC(CCC)c1cc(O)c(C(c2ccccc2)C2CC2)c(=O)o1` (stereo not drawn) [Example 25, 3-(α-cyclopropylbenzyl)-6-(1-propylbutyl)-4-hydroxy-2H-Pyran-2-one], the Ki (read-out: HIV-1 FITC Ki) is 0.041 µM.

Turning to `CCCc1cc(O)c(C(c2ccccc2)C2CC2)c(=O)o1` (stereo not drawn) [Example 104, 3-(Cyclopropyl-phenyl-methyl)-4-hydroxy-6-propyl-pyran-2-one], where the note is “HIV-1 Dose 1.000 uM”, the inhibition at 1 µM is 50%. Besides, the inhibition at 10 µM (HIV-1 Dose 10.000 uM) was 73.2%. Moreover, the inhibition at 100 µM (HIV-1 Dose 100.000 uM) was determined as 87.3%.

As for `CCC(CC1CCCN(S(=O)(=O)c2ccc(C)cc2)C1)c1cc(O)c(C(c2ccccc2)C2CC2)c(=O)o1` (stereo not drawn) [Example 137, 3-[2-[3-(Cyclopropylphenylmethyl)-4-hydroxy-2-oxo-2H-pyran-6-yl]butyl]-1-[(4-methylphenyl)sulfonyl]-piperidine], under “HIV-1 Dose 0.123 uM”, the inhibition at 0.123 µM is less than 10%. Moreover, the inhibition at 0.37 µM (HIV-1 Dose 0.370 uM) was less than 10%. Moreover, the inhibition at 1.1 µM (HIV-1 Dose 1.100 uM) was found to be 23%. Besides, the inhibition at 3.3 µM (HIV-1 Dose 3.300 uM) came out at 57.2%. For the same compound, the inhibition at 10 µM (HIV-1 Dose 10.000 uM) was 80.2%. Moreover, the inhibition at 30 µM (HIV-1 Dose 30.000 uM) came out at 79.7%.

As for `CCC(c1ccccc1)c1c(O)cc(CCc2cccc3ccccc23)oc1=O` (stereo not drawn) [Example 18, 3-(α-ethylbenzyl)-4-hydroxy-6-(2-naphth-1-ylethyl)-2H-Pyran-2-one], the inhibition at 1 µM (HIV-1 Dose 1.000 uM) is less than 10%. Moreover, the inhibition at 10 µM (HIV-1 Dose 10.000 uM) is 42.1%. In addition, the inhibition at 100 µM (HIV-1 Dose 100.000 uM) was 86.8%.

Consider `CCC(Cc1ccc(Cl)s1)c1cc(O)c(C(c2ccccc2)C2CC2)c(=O)o1` (stereo not drawn) [Example 52, 6-(1-(5-Chloro-thiophen-2-ylmethyl)-propyl)-3-(cyclopropyl-phenyl-methyl)-4-hydroxy-pyran-2-one], for which the inhibition at 0.41 µM is 66.6%, the inhibition at 1.23 µM was determined as 86.2%, the inhibition at 3.7 µM came out at 106% and the inhibition at 11 µM stood at 112%. Besides, the inhibition at 33 µM was 116%. The inhibition at 100 µM (HIV-1 Dose 100.000 uM) was 113%. The Ki (read-out: HIV-1 FITC Ki) is 0.043 µM.

The values above are taken from patent publication EP1203770A1 (priority 1992, dated 1994).
